Results published in paper PMC9573667, “Efficient Oxidative Dearomatisations of Substituted Phenols Using Hypervalent Iodine (III) Reagents and Antiprotozoal Evaluation of the Resulting Cyclohexadienones against T. b. rhodesiense and P. falciparum Strain NF54” (Molecules, 2022).
Read-outs that look alike come from different tables or passages of the source. Blank lines part the entries; values can stand above or below the compound they belong to.

What was measured:
[1] = test system: P. falciparum, strain NF54, erythrocytic stages; assay: In vitro growth inhibition assay of Plasmodium falciparum NF54 ([3H]-hypoxanthine incorporation); type: cell-based; details: for IC50: Plasmodium falciparum; for ligand efficiency lipophilic price (LELP), P. falciparum / lipophilic ligand efficiency (LLE), P. falciparum: based on IC50 values in nmol/L, DataWarrior 5.5.0
Description: Antimalarial activity was determined in vitro against the erythrocytic stages of P. falciparum using the drug-sensitive strain NF54. Parasite proliferation was assessed by incorporation of [^3H]-hypoxanthine using a modified version of [75]; for details, please refer to the Supplementary Materials. The positive control was chloroquine.
1. Experimental of biological testing
1.1 In vitro growth inhibition assay of Plasmodium falciparum NF54
Plasmodium falciparum, strain NF54, erythrocytic stages, and the standard drug, chloroquine, were used for the assay. The parasite cultures incubated in RPMI 1640 medium with 5% AlbuMAXTM (without hypoxanthine) were exposed to serial drug dilutions in microtiter plates. After 48 h of incubation at 37 °C in a reduced oxygen atmosphere, 0.5 μCi [3H]-hypoxanthine was added to each well of the plate. Cultures were incubated for a further 24 h before they were harvested onto glass-fiber filters and washed with distilled water. The radioactivity was counted using a BetaplateTM liquid scintillation […]
counter (Wallac, Zurich). […]
concentration and expressed as percentage of the untreated controls. IC50 values were calculated from the sigmoidal inhibition curves using Microsoft Excel. Chloroquine was used as control. […]

[2] = test system: L6 cells rat skeletal myoblasts; assay: Cytotoxicity against L6 cells (Alamar blue); type: cell-based; details: read-out: Cyt. L6 IC50
Description: The antiprotozoal activity of 5a,b has already been described in the literature. […] Cytotoxicity was determined using L6 rat skeletal myoblasts to calculate a selectivity index for each parasite (SI = IC50(L6)/IC50(parasite)).
Cytotoxicity was determined in vitro against rat L6 myoblasts as described; details are listed in the supplement. […]
1.3 Cytotoxicity against L6 cells
Assays were performed in 96-well microtiter plates, each well containing 100 μL of RPMI 1640 medium supplemented with 1% L-glutamine (200 mM) and 10% foetal bovine serum, and 4000 L6 cells (a […] cell line derived from rat skeletal myoblasts). Serial drug dilutions of 11 threefold dilution steps covering a range from 100 to 0.002 μg/mL were prepared. After 72 h of incubation, the plates were inspected under an inverted microscope to assure growth of the controls and sterile conditions. 10 μL of Alamar Blue solution was then added to each well and the plates incubated for another 2 h. Then the plates were read with a Spectramax Gemini XS microplate fluorometer (Molecular Devices Cooperation, Sunnyvale, CA, USA) using an excitation wavelength of 536 nm and an emission wavelength of 588 nm.
The IC50 values were calculated by linear regression from the sigmoidal dose inhibition curves using the microplate reader software Softmax Pro (Molecular Devices Cooperation, Sunnyvale, CA, USA).
Podophyllotoxin (Sigma P4405) was used as control.

[3] = test system: T. brucei rhodesiense, strain STIB900 trypomastigote forms; assay: In vitro growth inhibition assay of Trypanosoma brucei rhodesiense STIB900 (Alamar blue); type: cell-based; details: for IC50: Trypanosoma brucei; for ligand efficiency lipophilic price (LELP), T. brucei rhodesiense / lipophilic ligand efficiency (LLE), T. brucei rhodesiense: based on IC50 values in nmol/L, DataWarrior 5.5.0
Description: Trypanocidal activity was determined in vitro against axenically grown bloodstream-forms of T. b. rhodesiense STIB900 as described in Refs. [76, 77] and detailed in the Supplementary Materials. Parasite proliferation was assessed via fluorescence of the redox-sensitive dye resazurin (Alamar blue). The drug melarsoprol was used as the positive control. […]
1.2 In vitro growth inhibition assay of Trypanosoma brucei rhodesiense
Trypanosoma brucei rhodesiense, STIB 900 strain, and the standard drug, melarsoprol, were used for the assay. Minimum Essential Medium (50 μL) supplemented with 25 mM HEPES, 1g/L additional glucose, 1% MEM non-essential amino acids (100x), 0.2 mM 2-mercaptoethanol, 1 mM Na-pyruvate and 15% heat-inactivated horse serum was added to each well of a 96-well microtiter plate. Serial drug dilutions of 11 three-fold dilution steps covering a range from 100 to 0.002 μg/mL were prepared. Then […]
mL double-distilled water) was then added to each well and incubation continued for a further 2–4 h.
Then, the plates were read with a Spectramax Gemini XS microplate fluorometer (Molecular Devices Cooperation, Sunnyvale, CA, USA) using an excitation wavelength of 536 nm and an emission wavelength of 588 nm. The IC50 values were calculated from the sigmoidal inhibition curves using the microplate reader software Softmax Pro (Molecular Devices Cooperation, Sunnyvale, CA, USA).
Melarsoprol was used as control. […]

[4] = NF54, strain NF54, erythrocytic stages, means of two to three measurements, SD <5%, read-out: P. falc. IC50
[5] = strain STIB900 trypomastigote forms, means of two to three measurements, SD <5%, read-out: T. b. rhod. IC50
[6] = L6 rat skeletal myoblasts, 72 h

Compound: CCN(CC)CCCC(C)Nc1ccnc2cc(Cl)ccc12 (stereo not drawn) [Chl., chloroquine, reference compound]
IC50 ([1]; NF54, read-out: P. falc. IC50): 2 nM
IC50 ([2]; Rattus norvegicus, L6, 72 h): 91100 nM

Compound: COC(=O)CC1(O)C=CC(=O)C=C1 [Compound 4a, Methyl 2-(1-hydroxy-4-oxocyclohexa-2,5-dien-1-yl)acetate]
IC50 [1, 4]: 969 nM
ligand efficiency lipophilic price (LELP), P. falciparum [1]: -0.2447
lipophilic ligand efficiency (LLE), P. falciparum [1]: 6.1690
IC50 [3, 5]: 588 nM
ligand efficiency lipophilic price (LELP), T. brucei rhodesiense [3]: -0.2362
lipophilic ligand efficiency (LLE), T. brucei rhodesiense [3]: 6.3859
IC50 [2, 6]: 391 nM

Compound: COC(=O)CCC1(O)C=CC(=O)C=C1 [Compound 4g, Methyl 3-(1-hydroxy-4-oxocyclohexa-2,5-dien-1-yl)propanoate]
ligand efficiency lipophilic price (LELP), P. falciparum [1]: 0.5999
lipophilic ligand efficiency (LLE), P. falciparum [1]: 4.7892
IC50 [3, 5]: 4870 nM
ligand efficiency lipophilic price (LELP), T. brucei rhodesiense [3]: 0.5746
lipophilic ligand efficiency (LLE), T. brucei rhodesiense [3]: 5.0134
IC50 [2, 6]: > 100000 nM
melting point: 49 to 50 °C

Compound: O=C1C=CC2(C=C1)CCC(=O)O2 [Compound 4h, 1-Oxaspiro [4.5]deca-6,9-diene-2,8-dione]
ligand efficiency lipophilic price (LELP), P. falciparum [1]: 0.1197
lipophilic ligand efficiency (LLE), P. falciparum [1]: 5.4846
IC50 [3, 5]: 4890 nM
ligand efficiency lipophilic price (LELP), T. brucei rhodesiense [3]: 0.1253
lipophilic ligand efficiency (LLE), T. brucei rhodesiense [3]: 5.2346
IC50 [2, 6]: 425 nM
melting point: 105 to 106 °C

Compound: COC(=O)/C=C/C1(O)C=CC(=O)C=C1 [Compound 4i, Methyl (2E)-3-(1-hydroxy-4-oxocyclohexa-2,5-dien-1-yl)prop-2-enoate]
IC50 [1, 4]: 657 nM
ligand efficiency lipophilic price (LELP), P. falciparum [1]: 0.07742
lipophilic ligand efficiency (LLE), P. falciparum [1]: 6.1355
IC50 [3, 5]: 108 nM
ligand efficiency lipophilic price (LELP), T. brucei rhodesiense [3]: 0.0687
IC50 [2, 6]: 569 nM

Compound: O=C1C=C(Cc2ccccc2)C(=O)c2ccccc21 [Compound 5c, 2-Benzyl-1,4-dihydronaphthalene-1,4-dione]
IC50 ([1]; NF54, read-out: P. falc. IC50): 917 nM
IC50 ([3]; read-out: T. b. rhod. IC50): 80 nM
IC50 ([3]; read-out: T. brucei rhodesiense IC50): < 100 nM
IC50 ([2]; Rattus norvegicus, L6, 72 h): 22000 nM

Compound: O=C1C=CC(=O)c2cc(F)ccc21 [Compound 5d, 6-Fluoro-1,4-dihydronaphthalene-1,4-dione]
IC50 [1, 4]: 677 nM
ligand efficiency lipophilic price (LELP), P. falciparum [1]: 2.3657
lipophilic ligand efficiency (LLE), P. falciparum [1]: 4.6292
IC50 ([3]; STIB900, stated in text in nM, read-out: T. brucei rhodesiense IC50): < 100 nM
IC50 [3, 5]: 93 nM
ligand efficiency lipophilic price (LELP), T. brucei rhodesiense [3]: 2.0757
lipophilic ligand efficiency (LLE), T. brucei rhodesiense [3]: 5.4913
IC50 [2, 6]: 2170 nM
melting point: 119 to 120 °C

Compound: O=C1C=CC(=O)c2cc(F)c(F)cc21 [Compound 5e, 6,7-Difluoro-1,4-dihydronaphthalene-1,4-dione]
IC50 [1, 4]: 689 nM
ligand efficiency lipophilic price (LELP), P. falciparum [1]: 2.7178
lipophilic ligand efficiency (LLE), P. falciparum [1]: 4.5208
IC50 [3, 5]: 166 nM
ligand efficiency lipophilic price (LELP), T. brucei rhodesiense [3]: 2.470
lipophilic ligand efficiency (LLE), T. brucei rhodesiense [3]: 5.1389
IC50 [2, 6]: 4800 nM
melting point: 128 to 130 °C

Compound: Nc1nc(N)nc(Nc2ccc([As]3SCC(CO)S3)cc2)n1 (stereo not drawn) [Mel., melarsoprol, reference compound]
IC50 ([3]; read-out: T. b. rhod. IC50): 4 nM
IC50 ([2]; Rattus norvegicus, L6, 72 h): 24200 nM

Compound: COc1cc([C@@H]2c3cc4c(cc3[C@H](O)[C@H]3COC(=O)[C@H]23)OCO4)cc(OC)c1OC [Pod., podophyllotoxin, reference compound]
IC50 ([2]; Rattus norvegicus, L6, 72 h): 7 nM

Further compounds by falling IC50 [3, 5], results first:

IC50 [1, 4]: 644 nM
IC50 [3, 5]: 78 nM
Compound: COC(=O)CC1(O)C=CC(=O)C(F)=C1 (stereo not drawn) [Compound 4b, Methyl 2-(3-fluoro-1-hydroxy-4-oxocyclohexa-2,5-dien-1-yl)acetate]
ligand efficiency lipophilic price (LELP), P. falciparum [1]: 0.07582
lipophilic ligand efficiency (LLE), P. falciparum [1]: 6.1451
lipophilic ligand efficiency (LLE), T. brucei rhodesiense [3]: 7.0619
IC50 [2, 6]: 657 nM

IC50 [1, 4]: 837 nM
IC50 [3, 5]: 47 nM
Compound: COC(=O)CC1(O)C=CC(=O)C(Cl)=C1 (stereo not drawn) [Compound 4c, Methyl 2-(3-chloro-1-hydroxy-4-oxocyclohexa-2,5-dien-1-yl)acetate]
ligand efficiency lipophilic price (LELP), P. falciparum [1]: 0.4433
lipophilic ligand efficiency (LLE), P. falciparum [1]: 5.8133
ligand efficiency lipophilic price (LELP), T. brucei rhodesiense [3]: 0.3676
lipophilic ligand efficiency (LLE), T. brucei rhodesiense [3]: 7.0639
IC50 [2, 6]: 440 nM

IC50 [1, 4]: 301 nM
IC50 [3, 5]: 42 nM
Compound: COC(=O)CC1(O)C=CC(=O)C(Br)=C1 (stereo not drawn) [Compound 4d, Methyl 2-(3-bromo-1-hydroxy-4-oxocyclohexa-2,5-dien-1-yl)acetate]
ligand efficiency lipophilic price (LELP), P. falciparum [1]: 0.6181
lipophilic ligand efficiency (LLE), P. falciparum [1]: 6.1264
ligand efficiency lipophilic price (LELP), T. brucei rhodesiense [3]: 0.5464
lipophilic ligand efficiency (LLE), T. brucei rhodesiense [3]: 6.9818
IC50 [2, 6]: 214 nM

IC50 [1, 4]: 391 nM
IC50 [3, 5]: 24 nM
Compound: COC(=O)CC1(O)C=C(Br)C(=O)C(Br)=C1 [Compound 4f, Methyl 2-(3,5-dibromo-1-hydroxy-4-oxocyclohexa-2,5-dien-1-yl)acetate]
ligand efficiency lipophilic price (LELP), P. falciparum [1]: 1.613
lipophilic ligand efficiency (LLE), P. falciparum [1]: 5.4625
ligand efficiency lipophilic price (LELP), T. brucei rhodesiense [3]: 1.3564
lipophilic ligand efficiency (LLE), T. brucei rhodesiense [3]: 6.6745
IC50 [2, 6]: 199 nM

IC50 [1, 4]: 245 nM
IC50 [3, 5]: 10 nM
Compound: COC(=O)CC1(O)C=C(Cl)C(=O)C(Cl)=C1 [Compound 4e, Methyl 2-(3,5-dichloro-1-hydroxy-4-oxocyclohexa-2,5-dien-1-yl)acetate]
ligand efficiency lipophilic price (LELP), P. falciparum [1]: 1.1301
lipophilic ligand efficiency (LLE), P. falciparum [1]: 5.9275
ligand efficiency lipophilic price (LELP), T. brucei rhodesiense [3]: 0.9339
lipophilic ligand efficiency (LLE), T. brucei rhodesiense [3]: 7.3167
IC50 [2, 6]: 116 nM
